Active and inactive are the calls of the source. The rule behind the calls is not given here.
What was measured:
[1] = tested on: PANC-1; test: Cytotoxicity against human PANC1 cells in nutrient-deprived condition assessed as cell death at 100 uM after 24 hrs by WST-8 assay; assay type: functional
[2] = tested on: PANC-1; test: Cytotoxicity against human PANC1 cells in nutrient-deprived condition at 0.01 ug/mL after 24 hrs by WST-8 assay; assay type: functional, cell-based
[3] = tested on: PANC-1; test: Cytotoxicity against human PANC1 cells in nutrient-deprived condition assessed as cell death at 200 uM after 24 hrs by WST-8 assay; assay type: functional
[4] = tested on: PANC-1; test: Cytotoxicity against human PANC1 cells in nutrient-deprived condition assessed as cell death at 6.25 uM after 24 hrs by WST-8 assay; assay type: functional
[5] = tested on: PANC-1; test: Induction of apoptosis in human PANC1 cells in nutrient-deprived condition assessed as morphological changes at 3.125 to 12.5 uM up to 24 hrs by microscopy; assay type: functional, cell-based

| SMILES | Activity [1] | further results |
| --- | --- | --- |
| CC(C)=CCC/C(C)=C/COc1ccc2ccc(=O)oc2c1 | Active |  |
| CC(C)=CCOc1ccc2ccc(=O)oc2c1 [7-PRENYLOXYCOUMARIN] | 100% |  |
| CC(C)=CCC/C(C)=C/CC/C(C)=C/COc1cc2ccccc2oc1=O | Active |  |
| CC(C)(OC(=O)/C=C/c1ccc(O)cc1)[C@@H]1Cc2c(ccc3ccc(=O)oc23)O1 |  | Activity [2]: Active |
| O=c1ccc2ccc(OC3CCCC3)cc2o1 |  | Activity [3]: 100% |
| CC(C)=CCC/C(C)=C/CC/C(C)=C/CC/C(C)=C/COc1ccc2ccc(=O)oc2c1 | Active | Activity [4]: 100%; Activity [5]: Active |

From ChEMBL document CHEMBL1833838, “Pancreatic anticancer activity of a novel geranylgeranylated coumarin derivative” (2011)
